PMC4052546 (Pharmaceuticals, 2011)
Like-named read-outs stand apart in the source and are kept apart here.

Legend:
[1] = Pharmacokinetics of AS and DHA in rat plasma after single and multiple intravenous AS injections (automated blood sampler, LC-MS/MS); assay type: in vivo, Sprague-Dawley rats; settings: for Cmax / MRT / Tmax / clearance / AUC(0-t) / AUC / half-life / average plasma concentration over 0–72 h (Cav = AUC0–72 h/72): male, Sprague-Dawley, rat, plasma, iv; for AUC(0-t): read-out: AUC0–3 h; for AUC: read-out: AUCinfininty;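 for all read-outs here: blood drawn through a jugular vein catheter by an automated sampling system, plasma drug levels measured by LC-MS/MS with positive electrospray ionization against standard curves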
Procedure: The Culex ABS is a blood sampling and metabolism monitoring machine, which is controlled by its own internal computer. We were successful in evaluating PK for long-term periods by using this system. After jugular vein cannulation, study animals were individually placed in the system, which allowed for a micro-pump to infuse heparinized-saline (10 unit heparin/mL saline) at a rate of 1-2 μL/min to prevent coagulation within the catheter. Culex samples were obtained with precise blood volumes from the study animals and the total volume taken was less than 6% per day and 14% during the entire study period. Blood samples were maintained at 3 °C using Culex's temperature-controlled fractional collector. Plasma was separated from the blood samples and processed for drug extraction.
(§1) Three samples were collected during each phase of absorption, distribution, or elimination for full PK analysis on the first and last dosing days following intravenous bonus injection. Additionally, trough levels (pre-dose) samples were collected in between each dose to follow drug accumulation and a series PK approach (18 samples per animal) was used. Thus, each animal was dosed and plasma samples were obtained for up to three days. A total of 18 (0, 5, 15, 30, 45 min, 1, 2, 3, 6, 24.25, 48.167, 48.25, 48.5, 48.75, 49, 50, 51, and 54 h) samples were collected into cooled vials. 50 μL of blood per sample was collected pre-dosing and after dosing and 100 μL per sample was taken from 0.08 h to 56 h after dosing. During collection, blood samples were added into the vials, which contained dried heparin (50 units) on the bottom of each vial. Thus, a total blood volume of 1.75 mL was obtained from each rat during the three day treatment period (0.85 mL of blood on day 0, 0.1 mL on day 1, and 0.9 mL on day 2), which is 9.3% of the animals total blood volume. Subjects for replicated crossover design were followed FDA recommendation [22] with a 2 week wash out period. During wash-out period, if the catheter was blocked up by any reasons the jugular vein tubes were infused or replaced.
The samples were vortexed vigorously (set at 10 or max setting) for 8–10 sec followed by a 10,000 × g centrifugation at 4 °C for 10 min. Aliquots (approximately 250 μL ea) of the undisturbed supernatants were transferred into a 96-well plate for LC-MS/MS analyses. […] Drugs were chromatographically separated using an acetonitrile/ammonium acetate gradient through a Waters XTerra C18 column (2.1 × 50 mm, 3.5 μm particle size) and corresponding pre-column. Quantification was done using the most abundant daughter ions following positive electrospray ionization. Chromatograms were analyzed using Xcalibur mass spectrometry software. The responses-concentrations standard curves were fitted and weighted.
The area under the curve (AUC) was determined by the linear trapezoidal rule with extrapolation to infinity based on the concentration of the last time point divided by the terminal rate constant. The bioequivalence (BE) evaluation of the two formulations were analyzed by using BE software (WinNonlin 5.2, Pharsight Co. Mountain View, CA. USA) in rats for a NDA application.

[2] = Hematology and recovery study after multiple intravenous AS; assay type: in vivo, rats
Procedure: At 24 and 96 h after the final dose of Chinese and WRAIR intravenous AS, male and female animals were anesthetized by isoflurane inhalation anesthesia (Abbott Labs, North Chicago, IL, USA) delivered by a small-animal anesthesia system (Euthanex Corp, Palmer Park, PA, USA). Each animal was initially placed in a chamber primed with 5% isoflurane, and upon induction, maintained in a non-rebreathing mask at 2% isoflurane delivered with […]. […] One mL of the blood sample was placed in K3 EDTA tubes (Beckton Dickinson, Franklin Lakes, NJ, USA) for CBC analysis using the ABX Pentra 60 hematology analyzer (ABX diagnostics, Irvine, CA, USA). Another 0.7 mL of blood was placed in serum separator tubes (Becton Dickinson, Franklin Lakes, NJ, USA) for biochemistry analysis using commercial assay kits on the Vitros 250 Chemistry analyzer (Johnson & Johnson, Rochester, NY, USA). Reticulocyte analysis was performed utilizing light microscopy. After sample collection, rats were euthanized by cervical dislocation.

[3] = rat, in vivo
From the text: An automated blood sampler (Culex ABS, Bioanalytical Systems, Inc. West Lafayette, IN) was used for rat blood sample collection.
as §1
The area under the curve (AUC) was determined by the linear trapezoidal rule with extrapolation to infinity based on the concentration of the last time point divided by the terminal rate constant.

malaria parasites = settings: incubation in vitro; cited from earlier work
parasitemia = tested on: parasitemia; design: method as in earlier work; settings: intravenous AS, clinical trials; cited from earlier work
[4] = cited from earlier work
[5] = Chinese formulation (AS/NaHCO3), 20 mg/kg i.v. daily for 3 days, male rats, Period 1, Day 3
[6] = Chinese formulation (AS/NaHCO3), 20 mg/kg i.v. daily for 3 days, male rats, Period 2, Day 3
[7] = WRAIR formulation (AS/0.3M PBS Buffer), 20 mg/kg i.v. daily for 3 days, male rats, Period 2, Day 3
[8] = 20 mg/kg, Chinese formulation (AS/NaHCO3), 20 mg/kg i.v. daily for 3 days, male rats, Period 1, Day 1
[9] = 20 mg/kg, Chinese formulation (AS/NaHCO3), 20 mg/kg i.v. daily for 3 days, male rats, Period 1, Day 3
[10] = 20 mg/kg, Chinese formulation (AS/NaHCO3), 20 mg/kg i.v. daily for 3 days, male rats, Period 2, Day 1
[11] = 20 mg/kg, Chinese formulation (AS/NaHCO3), 20 mg/kg i.v. daily for 3 days, male rats, Period 2, Day 3
[12] = 20 mg/kg, WRAIR formulation (AS/0.3M PBS Buffer), 20 mg/kg i.v. daily for 3 days, male rats, Period 1, Day 1
[13] = 20 mg/kg, WRAIR formulation (AS/0.3M PBS Buffer), 20 mg/kg i.v. daily for 3 days, male rats, Period 1, Day 3
[14] = 20 mg/kg, WRAIR formulation (AS/0.3M PBS Buffer), 20 mg/kg i.v. daily for 3 days, male rats, Period 2, Day 1
[15] = 20 mg/kg, WRAIR formulation (AS/0.3M PBS Buffer), 20 mg/kg i.v. daily for 3 days, male rats, Period 2, Day 3
[16] = male, Sprague-Dawley, iv, 20 mg/kg, 1 day

## C[C@H]1[C@H](OC(=O)CCC(=O)O)O[C@@H]2O[C@@]3(C)CC[C@H]4[C@H](C)CC[C@@H]1[C@@]24OO3 [AS, artesunate]
[1]; Chinese formulation (AS/NaHCO3), 20 mg/kg i.v. daily for 3 days, male rats, Period 1, Day 1
  AUC0–3 h: 867.5 ± 136.7 ng·h/mL
[1]; [5]
  AUC0–3 h: 614.2 ± 191.8 ng·h/mL
  Cmin: 4.35 ± 2.54 ng/mL
[1]; Chinese formulation (AS/NaHCO3), 20 mg/kg i.v. daily for 3 days, male rats, Period 2, Day 1
  AUC0–3 h: 932.6 ± 144.2 ng·h/mL
[1]; [6]
  AUC0–3 h: 665.4 ± 236.3 ng·h/mL
  Cmin: 3.35 ± 2.11 ng/mL
  Degree of Fluctuation = 100% × (Cmax − Cmin)/Cav: 1192 ± 219%
[1]; Chinese formulation, 20 mg/kg i.v., rats, period 1, day 1
  time at which Cmax was measured: 5 min
[1]; Chinese formulation, 20 mg/kg i.v., rats, period 2, day 1
  time at which Cmax was measured: 5 min
[1]; Chinese formulation, 20 mg/kg i.v., rats, period 2, day 3
  time at which Cmax was observed: 5 min
[1]; WRAIR formulation (AS/0.3M PBS Buffer), 20 mg/kg i.v. daily for 3 days, male rats, Period 1, Day 1, 20 mg/kg
  AUC0–3 h: 879.4 ± 167.4 ng·h/mL
[1]; WRAIR formulation (AS/0.3M PBS Buffer), 20 mg/kg i.v. daily for 3 days, male rats, Period 1, Day 3
  Cmin: 3.56 ± 0.85 ng/mL
[1]; WRAIR formulation (AS/0.3M PBS Buffer), 20 mg/kg i.v. daily for 3 days, male rats, Period 1, Day 3, 20 mg/kg
  AUC0–3 h: 611.1 ± 162.1 ng·h/mL
[1]; [7]
  Cmin: 3.87 ± 1.57 ng/mL
  Degree of Fluctuation = 100% X (Cmax − Cmin)/Cav: 1218 ± 172%
[1]; WRAIR formulation (AS/0.3M PBS Buffer), 20 mg/kg i.v. daily for 3 days, male rats, Period 2, Day 3, 20 mg/kg
  AUC0–3 h: 669.7 ± 159.3 ng·h/mL
[1]; WRAIR formulation, 20 mg/kg i.v., rats, period 1, day 1
  time at which Cmax was measured: 5 min
[1]; i.v. treatments in rats
  AS concentration on day 3 compared to day 1: one-third lower
[1]; [8]
  Cmax: 4300 ng/mL
  MRT: 15.6 ± 2.4 min
  Tmax: 4.98 min
  clearance: 380 ± 54.2 mL/min/kg
  AUC(0-t): 868 ng·h/mL
  AUC: 872 ± 138 ng·h/mL
[1]; 20 mg/kg, Chinese formulation (AS/NaHCO3), 20 mg/kg i.v. daily for 3 days, male rats, Period 1, Day 1, read-out: t1/2 distribution (converted)
  half-life: 3.6 ± 0.6 min
[1]; 20 mg/kg, Chinese formulation (AS/NaHCO3), 20 mg/kg i.v. daily for 3 days, male rats, Period 1, Day 1, read-out: t1/2 elimination (converted)
  half-life: 24 ± 4.2 min
[1]; [9]
  Cmax: 2460 ng/mL
  MRT: 17.4 ± 6 min
  Tmax: 4.98 min
  average plasma concentration over 0–72 h (Cav = AUC0–72 h/72): 204 ng·h/mL
  clearance: 570 ± 170 mL/min/kg
  AUC(0-t): 614 ng·h/mL
  AUC: 617 ± 193 ng·h/mL
[1]; 20 mg/kg, Chinese formulation (AS/NaHCO3), 20 mg/kg i.v. daily for 3 days, male rats, Period 1, Day 3, read-out: t1/2 distribution (converted)
  half-life: 6 ± 1.8 min
[1]; 20 mg/kg, Chinese formulation (AS/NaHCO3), 20 mg/kg i.v. daily for 3 days, male rats, Period 1, Day 3, read-out: t1/2 elimination (converted)
  half-life: 24.6 ± 6.6 min
[1]; [10]
  Cmax: 4140 ng/mL
  MRT: 15.6 ± 3 min
  Tmax: 4.98 min
  clearance: 360 ± 56.2 mL/min/kg
  AUC(0-t): 932 ng·h/mL
  AUC: 935 ± 144 ng·h/mL
[1]; 20 mg/kg, Chinese formulation (AS/NaHCO3), 20 mg/kg i.v. daily for 3 days, male rats, Period 2, Day 1, read-out: t1/2 distribution (converted)
  half-life: 4.8 ± 1.8 min
[1]; 20 mg/kg, Chinese formulation (AS/NaHCO3), 20 mg/kg i.v. daily for 3 days, male rats, Period 2, Day 1, read-out: t1/2 elimination (converted)
  half-life: 25.8 ± 4.2 min
[1]; [11]
  Cmax: 2540 ng/mL
  MRT: 15.6 ± 5.4 min
  Tmax: 4.98 min
  clearance: 562 ± 240 mL/min/kg
  AUC(0-t): 665 ng·h/mL
  AUC: 667 ± 238 ng·h/mL
[1]; 20 mg/kg, Chinese formulation (AS/NaHCO3), 20 mg/kg i.v. daily for 3 days, male rats, Period 2, Day 3, read-out: t1/2 distribution (converted)
  half-life: 7.2 ± 1.8 min
[1]; 20 mg/kg, Chinese formulation (AS/NaHCO3), 20 mg/kg i.v. daily for 3 days, male rats, Period 2, Day 3, read-out: t1/2 elimination (converted)
  half-life: 23.4 ± 7.8 min
[1]; [12]
  Cmax: 4030 ng/mL
  MRT: 18 ± 3.6 min
  Tmax: 4.98 min
  clearance: 378 ± 67.2 mL/min/kg
  AUC(0-t): 879 ng·h/mL
  AUC: 882 ± 167 ng·h/mL
[1]; 20 mg/kg, WRAIR formulation (AS/0.3M PBS Buffer), 20 mg/kg i.v. daily for 3 days, male rats, Period 1, Day 1, read-out: t1/2 distribution (converted)
  half-life: 4.8 ± 1.2 min
[1]; 20 mg/kg, WRAIR formulation (AS/0.3M PBS Buffer), 20 mg/kg i.v. daily for 3 days, male rats, Period 1, Day 1, read-out: t1/2 elimination (converted)
  half-life: 24.6 ± 1.8 min
[1]; [13]
  Cmax: 2430 ng/mL
  MRT: 16.2 ± 5.4 min
  Tmax: 4.98 min
  average plasma concentration over 0–72 h (Cav = AUC0–72 h/72): 204 ng·h/mL
  clearance: 559 ± 118 mL/min/kg
  AUC(0-t): 611 ng·h/mL
  AUC: 613 ± 163 ng·h/mL
[1]; 20 mg/kg, WRAIR formulation (AS/0.3M PBS Buffer), 20 mg/kg i.v. daily for 3 days, male rats, Period 1, Day 3, read-out: t1/2 distribution (converted)
  half-life: 6 ± 2.4 min
[1]; 20 mg/kg, WRAIR formulation (AS/0.3M PBS Buffer), 20 mg/kg i.v. daily for 3 days, male rats, Period 1, Day 3, read-out: t1/2 elimination (converted)
  half-life: 28.2 ± 6 min
[1]; [14]
  Cmax: 4210 ng/mL
  MRT: 16.8 ± 2.4 min
  Tmax: 4.98 min
  clearance: 387 ± 52.1 mL/min/kg
[1]; 20 mg/kg, WRAIR formulation (AS/0.3M PBS Buffer), 20 mg/kg i.v. daily for 3 days, male rats, Period 2, Day 1, read-out: t1/2 distribution (converted)
  half-life: 4.8 ± 0.6 min
[1]; 20 mg/kg, WRAIR formulation (AS/0.3M PBS Buffer), 20 mg/kg i.v. daily for 3 days, male rats, Period 2, Day 1, read-out: t1/2 elimination (converted)
  half-life: 26.4 ± 3.6 min
[1]; [15]
  Cmax: 2710 ng/mL
  MRT: 16.2 ± 3.6 min
  Tmax: 4.98 min
  clearance: 517 ± 162 mL/min/kg
  AUC(0-t): 670 ng·h/mL
  AUC: 673 ± 160 ng·h/mL
[1]; 20 mg/kg, WRAIR formulation (AS/0.3M PBS Buffer), 20 mg/kg i.v. daily for 3 days, male rats, Period 2, Day 3, read-out: t1/2 distribution (converted)
  half-life: 8.4 ± 1.2 min
[1]; 20 mg/kg, WRAIR formulation (AS/0.3M PBS Buffer), 20 mg/kg i.v. daily for 3 days, male rats, Period 2, Day 3, read-out: t1/2 elimination (converted)
  half-life: 32.4 ± 11.4 min
[2]; 20 mg/kg AS intravenously, male and female rats, both formulations
  total reticulocyte counts: significant reductions
[2]; 20 mg/kg AS, 3 days post last dosing
  all hematological parameters after recovery period: reverted to normal
[3]; [16]
  90% CI for T/R, Lower, AUCD1: 88.72%
  90% CI for T/R, Upper, AUCD1: 111.28%
[3]
  BE (bioequivalence), AUCD1: Yes
  BE (bioequivalence), Cmax D1: Yes
[3]; iv
  90% CI between the two intravenous formulations, AUC0–3 h: 88.72–111.28%
  90% CI for the difference between the two i.v. formulations, AUC1–3D: 87.65–112.35%
  90% CI of the difference between the two intravenous formulations, AUCD3: 82.30–117.69%
Malaria parasites
  time to completely inhibit parasite growth: 2 to 4 h
parasitemia
  time for parasitemia to fall by half: 3.18 h
[4]
  elimination half-life (t1/2): 2 to 18 min
[4]; multiple oral treatments in malaria patients and healthy subjects
  Cmax and AUC values on the last dose day compared to the first day: reduced by one-third to one-seventh
